Experimental data from patent US20260258032A1, “TYROSINE KINASE 2 INHIBITORS AND USES THEREOF” (BIOGEN MA INC., priority 2022, published 2026).
Structures can show the parent of a compound that is named as a salt.

Key:
[1] = target: T1, JH2 domain of human Tyk2 (Homo sapiens, UniProt P29597); test: JH2 biochemical assay (TR-FRET probe displacement); type: binding; conditions: JH2 biochemical assay
T1 construct: 10×His-tagged TYK2 JH2 domain (amino acid 575-876)
Summary of the method: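 A probe-displacement TR-FRET readout: compounds, tested in 3-fold, 10-point dilutions starting at […], compete with 2 nM tracer for 2 nM His-tagged JH2 (residues 575-876) detected by 0.1 nM Tb-anti-His over 60 min. IC50 comes from 4-parameter fits of normalized 520/495 nm ratios.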

[2] = test system: Tyk2 kinase activity on STAT4; test: pSTAT4 cell assay (MSD, NK92 cells); type: cell-based; conditions: compounds 1 hr, stimulated 15 minutes
Summary of the method: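 Compound treatment of starved NK92 cells ran 1 hr before a 15-minute, 30 ng/mL IL2 pulse; lysates went to an MSD anti-STAT4 antibody assay, with curves fitted by 4-parameter logistic model.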

T1 sequence (P29597 575-876): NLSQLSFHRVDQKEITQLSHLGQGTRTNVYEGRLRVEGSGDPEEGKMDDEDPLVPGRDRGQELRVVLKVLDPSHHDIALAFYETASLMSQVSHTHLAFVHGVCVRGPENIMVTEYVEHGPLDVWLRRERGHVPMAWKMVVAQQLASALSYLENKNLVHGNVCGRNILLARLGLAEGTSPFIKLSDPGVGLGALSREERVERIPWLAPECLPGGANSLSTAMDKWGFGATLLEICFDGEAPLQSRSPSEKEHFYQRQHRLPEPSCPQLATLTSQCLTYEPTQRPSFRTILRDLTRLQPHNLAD

Compound	IC50 [1] [nM]	IC50 [2] [nM]
CC(=O)Nc1cc2c(cn1)C1(CC1)CN2c1nc(C(C)(F)F)ncc1F [Example 128, N-(1′-(2-(1,1-difluoroethyl)-5-fluoropyrimidin-4-yl)-1′,2′-dihydrospiro[cyclopropane-1,3′-pyrrolo[3,2-c]pyridin]-6′-yl)acetamide]	10 to 100	≥ 1000
COC(C)(C)c1nc(C)cc(N2CC3(CC3)c3cnc(NC(C)=O)cc32)n1 [Example 129, N-(1′-(2-(2-methoxypropan-2-yl)-6-methylpyrimidin-4-yl)-1′,2′-dihydrospiro[cyclopropane-1,3′-pyrrolo[3,2-c]pyridin]-6′-yl)acetamide]	10 to 100	100 to 1000
COC(C)c1nc(C)cc(N2CC3(CC3)c3cnc(NC(C)=O)cc32)n1 (centres unmarked) [Example 130, N-(1′-(2-(1-methoxyethyl)-6-methylpyrimidin-4-yl)-1′,2′-dihydrospiro[cyclopropane-1,3′-pyrrolo[3,2-c]pyridin]-6′-yl)acetamide]	≤ 10	100 to 1000
CC(=O)Nc1cc2c(cn1)C1(CC1)CN2c1cc(=O)[nH]c(C(C)(F)F)n1 [Example 133, N-(1′-(2-(1,1-difluoroethyl)-6-oxo-1,6-dihydropyrimidin-4-yl)-1′,2′-dihydrospiro[cyclopropane-1,3′-pyrrolo[3,2-c]pyridin]-6′-yl)acetamide]	≤ 10	≥ 1000
CC(=O)Nc1cc2c(cn1)C1(CC1)CN2c1cc(C)nc(S(C)(=O)=O)n1 [Example 136, N-(1′-(6-methyl-2-(methylsulfonyl)pyrimidin-4-yl)-1′,2′-dihydrospiro[cyclopropane-1,3′-pyrrolo[3,2-c]pyridin]-6′-yl)acetamide]	≤ 10	10 to 100
COC1CCN(c2nc(C)cc(N3CC4(CC4)c4cnc(NC(C)=O)cc43)n2)C1 (centres unmarked) [Example 137, N-(1′-(2-(3-methoxypyrrolidin-1-yl)-6-methylpyrimidin-4-yl)-1′,2′-dihydrospiro[cyclopropane-1,3′-pyrrolo[3,2-c]pyridin]-6′-yl)acetamide]	≤ 10	100 to 1000
CC(=O)Nc1cc2c(cn1)C1(CC1)CN2c1cc(C)nc(OC2CCC2)n1 [Example 138, N-(1′-(2-cyclobutoxy-6-methylpyrimidin-4-yl)-1′,2′-dihydrospiro[cyclopropane-1,3′-pyrrolo[3,2-c]pyridin]-6′-yl)acetamide]	10 to 100	≥ 1000
CC(=O)Nc1cc2c(cn1)C1(CC1)CN2c1cc(OCCN(C)C)nc(C(C)(F)F)n1 [Example 140, N-(1′-(2-(1,1-difluoroethyl)-6-(2-(dimethylamino)ethoxy)pyrimidin-4-yl)-1′,2′-dihydrospiro[cyclopropane-1,3′-pyrrolo[3,2-c]pyridin]-6′-yl)acetamide trifluoroacetate]	10 to 100	≥ 1000
CC(=O)Nc1cc2c(cn1)C1(CC1)CN2c1cc(OC2COC2)nc(C(C)(F)F)n1 [Example 141, N-(1′-(2-(1,1-difluoroethyl)-6-(oxetan-3-yloxy)pyrimidin-4-yl)-1′,2′-dihydrospiro[cyclopropane-1,3′-pyrrolo[3,2-c]pyridin]-6′-yl)acetamide]	≤ 10	100 to 1000
CC(=O)Nc1cc2c(cn1)C1(CC1)CN2c1cc(Oc2cncnc2)nc(C(C)(F)F)n1 [Example 142, N-(1′-(2-(1,1-difluoroethyl)-6-(pyrimidin-5-yloxy)pyrimidin-4-yl)-1′,2′-dihydrospiro[cyclopropane-1,3′-pyrrolo[3,2-c]pyridin]-6′-yl)acetamide trifluoroacetate]	10 to 100	≥ 1000
CC(=O)Nc1cc2c(cn1)C1(CC1)CN2c1cc(Oc2ccn(C)n2)nc(C(C)(F)F)n1 [Example 143, N-(1′-(2-(1,1-difluoroethyl)-6-((1-methyl-1H-pyrazol-3-yl)oxy)pyrimidin-4-yl)-1′,2′-dihydrospiro[cyclopropane-1,3′-pyrrolo[3,2-c]pyridin]-6′-yl)acetamide trifluoroacetate]	≤ 10	100 to 1000
CC(=O)Nc1cc2c(cn1)C1(CC1)CN2c1cc(OC2(C#N)CC2)nc(C(C)(F)F)n1 [Example 144, N-(1′-(6-(1-cyanocyclopropoxy)-2-(1,1-difluoroethyl)pyrimidin-4-yl)-1′,2′-dihydrospiro[cyclopropane-1,3′-pyrrolo[3,2-c]pyridin]-6′-yl)acetamide trifluoroacetate]	10 to 100	≥ 1000
CC(=O)Nc1cc2c(cn1)C1(CC1)CN2c1cc(Oc2cnn(C)c2)nc(C(C)(F)F)n1 [Example 145, N-(1′-(2-(1,1-difluoroethyl)-6-((1-methyl-1H-pyrazol-4-yl)oxy)pyrimidin-4-yl)-1′,2′-dihydrospiro[cyclopropane-1,3′-pyrrolo[3,2-c]pyridin]-6′-yl)acetamide trifluoroacetate]	10 to 100	100 to 1000
CC(=O)Nc1cc2c(cn1)C1(CC1)CN2c1cc(Oc2cnnn2C)nc(C(C)(F)F)n1 [Example 149, N-(1′-(2-(1,1-difluoroethyl)-6-((1-methyl-1H-1,2,3-triazol-5-yl)oxy)pyrimidin-4-yl)-1′,2′-dihydrospiro[cyclopropane-1,3′-pyrrolo[3,2-c]pyridin]-6′-yl)acetamide trifluorocetate]	10 to 100	≥ 1000
CC(=O)Nc1cc2c(cn1)C1(CC1)CN2c1cc(OC(C)C#N)nc(C(C)(F)F)n1 (centres unmarked) [Example 151, N-(1′-(6-(1-cyanoethoxy)-2-(1,1-difluoroethyl)pyrimidin-4-yl)-1′,2′-dihydrospiro[cyclopropane-1,3′-pyrrolo[3,2-c]pyridin]-6′-yl)acetamide trifluoroacetate]	10 to 100	≥ 1000
CC(=O)Nc1cc2c(cn1)C1(CC1)CN2c1cc(OC(C#N)C2CC2)nc(C(C)(F)F)n1 (centres unmarked) [Example 152, N-(1′-(6-(cyano(cyclopropyl)methoxy)-2-(1,1-difluoroethyl)pyrimidin-4-yl)-1′,2′-dihydrospiro[cyclopropane-1,3′-pyrrolo[3,2-c]pyridin]-6′-yl)acetamide trifluoroacetate]	10 to 100	100 to 1000
CC(=O)Nc1cc2c(cn1)C1(CC1)CN2c1cc(NC(C)C)nc(C(C)(F)F)n1 [Example 153, N-(1′-(2-(1,1-difluoroethyl)-6-(isopropylamino)pyrimidin-4-yl)-1′,2′-dihydrospiro[cyclopropane-1,3′-pyrrolo[3,2-c]pyridin]-6′-yl)acetamide trifluoroacetate]	≤ 10	10 to 100
CC(=O)Nc1cc2c(cn1)C1(CC1)CN2c1cc(NCC2CC2)nc(C(C)(F)F)n1 [Example 154, N-(1′-(6-((cyclopropylmethyl)amino)-2-(1,1-difluoroethyl)pyrimidin-4-yl)-1′,2′-dihydrospiro[cyclopropane-1,3′-pyrrolo[3,2-c]pyridin]-6′-yl)acetamide trifluoroacetate]	≤ 10	≤ 10
CC(=O)Nc1cc2c(cn1)C1(CC1)CN2c1cc(NC2CCOCC2)nc(C(C)(F)F)n1 [Example 155, N-(1′-(2-(1,1-difluoroethyl)-6-((tetrahydro-2H-pyran-4-yl)amino)pyrimidin-4-yl)-1′,2′-dihydrospiro[cyclopropane-1,3′-pyrrolo[3,2-c]pyridin]-6′-yl)acetamide]	≤ 10	10 to 100
CCCNc1cc(N2CC3(CC3)c3cnc(NC(C)=O)cc32)nc(C(C)(F)F)n1 [Example 156, N-(1′-(2-(1,1-difluoroethyl)-6-(propylamino)pyrimidin-4-yl)-1′,2′-dihydrospiro[cyclopropane-1,3′-pyrrolo[3,2-c]pyridin]-6′-yl)acetamide trifluoroacetate]	≤ 10	≤ 10
CC(=O)Nc1cc2c(cn1)C1(CC1)CN2c1cc(NC2CCC2)nc(C(C)(F)F)n1 [Example 157, N-(1′-(6-(cyclobutylamino)-2-(1,1-difluoroethyl)pyrimidin-4-yl)-1′,2′-dihydrospiro[cyclopropane-1,3′-pyrrolo[3,2-c]pyridin]-6′-yl)acetamide trifluoroacetate]	≤ 10	≤ 10
COC(C)(C)CNc1cc(N2CC3(CC3)c3cnc(NC(C)=O)cc32)nc(C(C)(F)F)n1 [Example 158, N-(1′-(2-(1,1-difluoroethyl)-6-((2-methoxy-2-methylpropyl)amino)pyrimidin-4-yl)-1′,2′-dihydrospiro[cyclopropane-1,3′-pyrrolo[3,2-c]pyridin]-6′-yl)acetamide trifluoroacetate]	≤ 10	≤ 10
CC(=O)Nc1cc2c(cn1)C1(CC1)CN2c1cc(NCC2(F)CC2)nc(C(C)(F)F)n1 [Example 160, N-(1′-(2-(1,1-difluoroethyl)-6-(((1-fluorocyclopropyl)methyl)amino)pyrimidin-4-yl)-1′,2′-dihydrospiro[cyclopropane-1,3′-pyrrolo[3,2-c]pyridin]-6′-yl)acetamide trifluoroacetate]	≤ 10	10 to 100
COC1(CNc2cc(N3CC4(CC4)c4cnc(NC(C)=O)cc43)nc(C(C)(F)F)n2)CC1 [Example 161, N-(1′-(2-(1,1-difluoroethyl)-6-(((1-methoxycyclopropyl)methyl)amino)pyrimidin-4-yl)-1′,2′-dihydrospiro[cyclopropane-1,3′-pyrrolo[3,2-c]pyridin]-6′-yl)acetamide trifluoroacetate]	≤ 10	10 to 100
CC(=O)Nc1cc2c(cn1)C1(CC1)CN2c1cc(NC[C@H]2CCO2)nc(C(C)(F)F)n1 [Example 162, (R)-N-(1′-(2-(1,1-difluoroethyl)-6-((oxetan-2-ylmethyl)amino)pyrimidin-4-yl)-1′,2′-dihydrospiro[cyclopropane-1,3′-pyrrolo[3,2-c]pyridin]-6′-yl)acetamide]	≤ 10	10 to 100
